Experimental data as given in US7166744B2, “Retinoid derivatives and methods for producing said compounds and anti-cancer pharmaceutical composition comprising said compounds” (Chebigen Co., Ltd., priority 2001, dated 2007).

Key:
Format in all cases: cell-based
colon cancer cells = experiment: MTT proliferation assay, colon cancer cells (Table 1); settings: 48 hours, concentration required for 50% growth inhibition, read-out: IC50, activities of various retinoid derivatives in colon cancer cells
Experimental: (§1) The effects of test compounds on proliferation of various cancer cells was examined by 3-(4,5-dimethylthiazol-2-yl)-2,5-diphenyltetrazolium bromide (MTT, Sigma) assay in a dose dependent manner. In the MTT assay, colon, liver, cervix, ovary, and breast cancer cell lines were treated with test compounds at various concentrations. Living cancer cells reduce MTT to dark blue MTT formazan that would be measured by absorbance.
(§2) Colon cancer cells, HCT116, DLD-1 and HT29, cervix cancer cells, HeLa and CaSki, ovary cancer cells, SKOV-3, 2774 and OVCAR-3, liver cancer cells, SK-Hep-1, PLCPRF5 and HepG2, and breast cancer cells, ZR75-1 and MDA-MB 231 were seeded at an initial density of 3000 cells per well in 96-well plates. After attachment of cells to the walls of the wells, the medium containing fresh retinoid was treated with various concentrations (0.5 μM, 1 μM, 2.5 μM, 5 μM, 10 μM) for 48 hours. 50 μl of MTT solution (2 mg/ml in PBS) was added to cell culture media. The reaction micture was incubated at 37° C. in a 5% CO2 atmosphere for 4 hours. The supernatant was removed and 150 μl of DMSO was added. The optical density was measured spectrophotometrically at 550 nm. […] For other retinoid derivatives according to the present invention, absorbances were measured by this procedure and IC50 values, concentrations required for 50% growth inhibition, were determined.

[1] = tested on: HCT116 colon cancer cells; experiment: MTT proliferation assay, HCT116
Experimental: as §1, §2

DLD-1 colon cancer cells [2] = experiment: MTT proliferation assay, DLD-1
Experimental: as §1, §2

HT29 colon cancer cells = experiment: MTT proliferation assay, HT29
Experimental: as §1, §2

[3] = tested on: CaSki cervix cancer cells; experiment: MTT proliferation assay, CaSki; settings: 48 hours, uterine cancer
Experimental: as §1, §2

[4] = tested on: SK-Hep-1 liver cancer cells; experiment: MTT proliferation assay, SK-Hep-1
Experimental: as §1, §2

[5] = tested on: MDA-MB-231 breast cancer cells; experiment: MTT proliferation assay, MDA-MB-231
Experimental: as §1, §2

[6] = tested on: HCT116 colon cancer cells; experiment: Trypan blue surviving cell count, HCT116; settings: for relative surviving cells (%): trypan blue
Text: (§3) Surviving cells, which had not be stained by trypan blue were counted and the results are shown in Table 3 as relative surviving cells (%).

RARγ = target: T1, RARγ (Homo sapiens, UniProt P13631); experiment: CAT reporter assay, RARγ; settings: 1 μM, control = 1.0; for expression level of CAT enzyme, RARγ −: column '−'
T1 construct: expressed in transfected cells
T1 sequence (P13631 1-454): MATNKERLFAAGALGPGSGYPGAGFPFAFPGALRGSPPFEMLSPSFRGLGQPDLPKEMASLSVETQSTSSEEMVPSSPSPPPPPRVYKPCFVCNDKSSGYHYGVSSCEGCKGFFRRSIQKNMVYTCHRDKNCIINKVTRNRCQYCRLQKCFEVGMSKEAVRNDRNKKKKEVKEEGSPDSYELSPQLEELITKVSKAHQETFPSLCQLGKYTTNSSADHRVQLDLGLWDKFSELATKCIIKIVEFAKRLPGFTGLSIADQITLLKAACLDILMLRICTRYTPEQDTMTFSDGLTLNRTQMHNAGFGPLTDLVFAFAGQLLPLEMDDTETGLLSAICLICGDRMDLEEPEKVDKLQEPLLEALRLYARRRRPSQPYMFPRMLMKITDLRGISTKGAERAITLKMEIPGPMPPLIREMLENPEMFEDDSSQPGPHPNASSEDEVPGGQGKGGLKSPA
Text: In order to confirm the effect of KCBG60 according to the present invention on retinoid receptor activity, cells were cotransfected with expression vectors of receptor subfamilies and reporter genes. As the reporter gene, chloramphenicol acetyltransferase (CAT) with a transcription control site reactive to respective receptors was used.

[7] = tested on: MCF-7 breast cancer cells; experiment: MTT proliferation assay, MCF-7; settings: 48 hours
MMP-2 mRNA expression = experiment: RT-PCR of MMP-2 mRNA in HCT116; settings: HCT116, 1 μM; for inhibition of MMP-2 mRNA expression: 36 hours
Experimental: Previously, it was shown that the synthetic retinoid derivatives inhibit the transcriptional activity of AP-1. Also, it is well known that MMP (matrix metalloproteinase), a main target gene of AP-1 is involved in metastasis of cancer cells. Therefore, the inhibitive effects of the retinoid derivatives on metastasis of cancer was examined by RT-PCR analysis. Colon cancer HCT116 cells were treated with 1 μM retinoid for 36 hours. RNA was isolated from the cells and mRNA expression levels of MMP-1, -2 and -3 were analyzed by RT-PCR. […] As the control, GAPDH was used and it was confirmed that its expression was not affected by retinoid. Meanwhile, the expression level of MMP-3 was affected weakly by KCBG40, intermediately by KCBG41 but strongly by KCBG10 (FIG. 9).
RNA was isolated from the cells and mRNA expression levels of MMP-1, -2 and -3 were analyzed by RT-PCR (FIG. 14).

DLD-1 colon cancer cells [8] = experiment: Trypan blue surviving cell count, DLD-1
Text: as §3

RXRγ = target: T2, RXRγ (Homo sapiens, UniProt P48443); experiment: CAT reporter assay, RXRγ; settings: 1 μM, control = 1.0, RA = 9-cis RA; for expression level of CAT enzyme, RXRγ −: column '−'
T2 construct: expressed in transfected cells
T2 sequence (P48443 1-463): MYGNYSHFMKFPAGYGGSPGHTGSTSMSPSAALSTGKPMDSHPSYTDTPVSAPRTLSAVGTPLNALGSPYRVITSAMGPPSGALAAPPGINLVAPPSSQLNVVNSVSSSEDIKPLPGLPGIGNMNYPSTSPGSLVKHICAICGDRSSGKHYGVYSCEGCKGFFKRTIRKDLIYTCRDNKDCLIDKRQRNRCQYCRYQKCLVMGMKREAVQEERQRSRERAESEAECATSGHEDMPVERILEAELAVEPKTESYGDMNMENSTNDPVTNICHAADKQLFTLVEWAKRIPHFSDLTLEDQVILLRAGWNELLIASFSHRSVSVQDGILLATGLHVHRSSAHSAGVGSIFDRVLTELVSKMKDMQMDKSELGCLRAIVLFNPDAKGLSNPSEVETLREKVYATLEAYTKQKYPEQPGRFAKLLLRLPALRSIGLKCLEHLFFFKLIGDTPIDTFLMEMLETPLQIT
Text: As the reporter gene, chloramphenicol acetyltransferase (CAT) with a transcription control site reactive to respective receptors was used.

CC1=C(/C=C/C(C)=C/C=C/C(C)=C/C(=O)O)C(C)(C)CCC1 [ATRA, All-trans-retinoic acid, reference compound]
IC50 (colon cancer cells): 20 µM | IC50 ([1]; Homo sapiens, HCT-116, 48 hours): 20 µM | IC50 (DLD-1 colon cancer cells [2]; Homo sapiens, DLD-1, 48 hours): 20 µM | IC50 (HT29 colon cancer cells; Homo sapiens, HT-29, 48 hours): 18 µM | IC50 ([3]; Homo sapiens, Ca-Ski): 20 µM | IC50 ([4]; Homo sapiens, SK-HEP1, 48 hours): > 500 µM | IC50 ([5]; Homo sapiens, MDA-MB-231, 48 hours): > 100 µM | inhibition at 10 µM ([6]; Homo sapiens, HCT-116, HCT116, 10 μM, read-out: inhibition of proliferation): 10 to 30% | expression level of CAT enzyme, RARγ + (RARγ): 49.3 | expression level of CAT enzyme, RARγ − (RARγ): 14.1

CCCC(=O)Nc1cc(NC(=O)/C=C(C)/C=C/C=C(C)/C=C/C2=C(C)CCCC2(C)C)ccc1O [KCBG41, (2E,4E,6E,8E)-[3,7-dimethyl-9-(2,6,6-trimethylcyclohex-1-enyl)-nona-2,4,6,8-tetraenoylamino]-(3-butyrylamino-4-hydroxy)phenylamide]
IC50 (colon cancer cells): 0.3 µM | IC50 ([1]; 48 hours): 1.4 µM | IC50 (DLD-1 colon cancer cells [2]; 48 hours): 1.5 µM | IC50 (HT29 colon cancer cells; 48 hours): 1.2 µM | IC50 [3]: 3 µM | IC50 ([4]; 48 hours): 0.8 µM | IC50 ([5]; 48 hours): 3.3 µM | IC50 [7]: 5.5 µM | inhibition of MMP-2 mRNA expression (MMP-2 mRNA expression): strongly

CCCC(=O)Oc1ccc(NC(=O)/C=C(C)/C=C/C=C(C)/C=C/C2=C(C)CCCC2(C)C)cc1 [KCBG60]
concentration at which inhibition of proliferation began ([6]; HCT116): 0.5 µM | relative surviving cells (%) ([6]; HCT116, 0.5 μM): 90% | relative surviving cells (%) ([6]; HCT116, 1 μM): 75% | relative surviving cells (%) ([6]; HCT116, 5 μM): 45% | inhibition of proliferation ([6]; HCT116, 10 μM): more than 90% | relative surviving cells (%) ([6]; HCT116, 10 μM): 10% | relative surviving cells (%) (DLD-1 colon cancer cells [8]; DLD-1, 0.5 μM): 95% | relative surviving cells (%) (DLD-1 colon cancer cells [8]; DLD-1, 1 μM): 85% | relative surviving cells (%) (DLD-1 colon cancer cells [8]; DLD-1, 5 μM): 60% | relative surviving cells (%) (DLD-1 colon cancer cells [8]; DLD-1, 10 μM): 30% | MMP-2 inhibitory expression level compared to ATRA (MMP-2 mRNA expression; 24 hours): two times higher | expression level of CAT enzyme, RARγ + (RARγ): 1.9 | expression level of CAT enzyme, RARγ − (RARγ): 0.6 | expression level of CAT enzyme, RXRγ + (RXRγ): 1.4 | expression level of CAT enzyme, RXRγ − (RXRγ): 1.2

CCCC(=O)Oc1cc(O)ccc1NC(=O)/C=C(C)/C=C/C=C(C)/C=C/C1=C(C)CCCC1(C)C [KCBG10, 2.2-[(2E,4E,6E,8E)-3,7-Dimethyl-9-(2,6,6-trimethylcyclohex-1-enyl)-nona-2,4,6,8-tetraenoylamino]-5-hydroxyphenylbutanoate]
IC50 (colon cancer cells): 3 µM | IC50 ([1]; 48 hours): 3 µM | IC50 (DLD-1 colon cancer cells [2]; 48 hours): 6 µM | IC50 (HT29 colon cancer cells; 48 hours): 6 µM | IC50 [3]: 0.5 µM | IC50 ([4]; 48 hours): 4.5 µM | IC50 ([5]; 48 hours): 3.5 µM | IC50 [7]: 1.3 µM | inhibition of MMP-2 mRNA expression (MMP-2 mRNA expression): weakly

phenyl butylate
relative surviving cells (%) ([6]; HCT116, 0.5 μM): 103% | relative surviving cells (%) ([6]; HCT116, 1 μM): 103% | relative surviving cells (%) ([6]; HCT116, 5 μM): 95% | relative surviving cells (%) ([6]; HCT116, 10 μM): 90% | relative surviving cells (%) (DLD-1 colon cancer cells [8]; DLD-1, 0.5 μM): 105% | relative surviving cells (%) (DLD-1 colon cancer cells [8]; DLD-1, 1 μM): 103% | relative surviving cells (%) (DLD-1 colon cancer cells [8]; DLD-1, 5 μM): 102% | relative surviving cells (%) (DLD-1 colon cancer cells [8]; DLD-1, 10 μM): 92% | effect on expression of MMP-2 (MMP-2 mRNA expression; 24 hours): did not affect expression of MMP-2 at all | expression level of CAT enzyme, RARγ + (RARγ): 1.1 | expression level of CAT enzyme, RARγ − (RARγ): 0.8 | expression level of CAT enzyme, RXRγ + (RXRγ): 1.2 | expression level of CAT enzyme, RXRγ − (RXRγ): 1.1

CC1=C(/C=C/C(C)=C/C=C/C(C)=C/C(=O)Nc2ccc(O)cc2)C(C)(C)CCC1 [HPR, (2E,4E,6E,8E)-[3,7-dimethyl-9-(2,6,6-trimethylcyclohex-1-enyl)-nona-2,4,6,8-tetraenoylamino]-4-hydroxyphenylamide]
IC50 (colon cancer cells): 6 to 8 µM | IC50 ([1]; 48 hours): 6 to 8 µM | IC50 (DLD-1 colon cancer cells [2]; 48 hours): 9 µM | IC50 (HT29 colon cancer cells; 48 hours): 8 µM | IC50 [3]: 2 µM | IC50 ([4]; 48 hours): > 100 µM | IC50 ([5]; 48 hours): 10 µM | IC50 [7]: 7 µM | relative surviving cells (%) ([6]; HCT116, 0.5 μM): 91% | relative surviving cells (%) ([6]; HCT116, 1 μM): 70% | relative surviving cells (%) ([6]; HCT116, 5 μM): 45% | relative surviving cells (%) ([6]; HCT116, 10 μM): 13% | relative surviving cells (%) (DLD-1 colon cancer cells [8]; DLD-1, 0.5 μM): 94% | relative surviving cells (%) (DLD-1 colon cancer cells [8]; DLD-1, 1 μM): 85% | relative surviving cells (%) (DLD-1 colon cancer cells [8]; DLD-1, 5 μM): 63% | relative surviving cells (%) (DLD-1 colon cancer cells [8]; DLD-1, 10 μM): 28% | inhibition of MMP-2 mRNA expression (MMP-2 mRNA expression): affected very little | expression level of CAT enzyme, RARγ + (RARγ): 24.8 | expression level of CAT enzyme, RARγ − (RARγ): 4.5 | expression level of CAT enzyme, RXRγ + (RXRγ): 1.5 | expression level of CAT enzyme, RXRγ − (RXRγ): 1.3
